From US10933032B2, “Methods for the treatment of cancer using coenzyme Q10 combination therapies” (Berg LLC, priority 2013, dated 2021)

Experiments:
[1] = test system: acute lymphoblastic leukemias; conditions: in combination with 60 mg/m^2 of prednisone, given daily; usually within 4 to 6 weeks; cited from earlier work
[2] = test system: Mycosis fungoides (cutaneous T Cell lymphoma); conditions: methotrexate as a single agent; cited from earlier work
[3] = test system: MIAPaCa-2 human pancreatic tumor cells; experiment: Xenogeneic mouse human pancreatic cancer model, survival; assay type: in vivo, NOD scid gamma (NSG) mice; conditions: Example 1, Regimen 1, single agent: IV 4% Coenzyme Q10 50 mg/kg/day, or IV gemcitabine 150 mg/kg/week for 3 weeks with one week rest; FIG. 1
[4] = test system: MIAPaCa-2 human pancreatic tumor cells; experiment: Xenogeneic mouse human pancreatic cancer model, tumors harvested at mortality (size, weight, vasculature, palpation); assay type: in vivo, NOD scid gamma (NSG) mice; conditions: Example 1, single agents: Group 2 Coenzyme Q10 IV 50 mg/kg/day; Group 3 gemcitabine 150 mg/kg/week; FIG. 2

SMILES | Remissions, patients treated [1] | Clinical responses, patients treated [2] | Survival (prolongation of life) compared to untreated control [3] | Growth of pancreatic tumors (tumor size at time of death) vs control [4]
CN(Cc1cnc2nc(N)nc(N)c2n1)c1ccc(C(=O)N[C@@H](CCC(=O)O)C(=O)O)cc1 [Methotrexate] | prednisone, given daily, produced remissions in 50% of patients treated, | 50% of patients treated. Dosage in early stages is usually 5 to 50 mg once |  | 
Nc1ccn([C@@H]2O[C@H](CO)[C@@H](O)C2(F)F)c(=O)n1 [gemcitabine, reference compound] |  |  | prolongation of life as compared to untreated control | inhibited the growth of pancreatic tumors
